# Measured values taken from PubChem BioAssay (NCI).
#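 Results reflect a 48-hour exposure of cells in 96-well plates to compound at five concentrations. The concentration for full growth arrest is given as TGI.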
# Experiments:
# Assay in all cases: DTP human tumour cell line panel, 48 h
# K-562 leukemia = test system: K-562 leukemia
# SNB-19 CNS = test system: SNB-19 CNS
# 786-0 renal = test system: 786-0 renal
# NCI-H226 lung = test system: NCI-H226 lung
# HCT-116 colon = test system: HCT-116 colon
# UO-31 renal = test system: UO-31 renal
# UACC-62 melanoma = test system: UACC-62 melanoma
# SK-OV-3 ovarian = test system: SK-OV-3 ovarian
# MOLT-4 leukemia = test system: MOLT-4 leukemia
# T-47D breast = test system: T-47D breast
# NCI/ADR-RES ovarian = test system: NCI/ADR-RES ovarian
# SK-MEL-5 melanoma = test system: SK-MEL-5 melanoma
# HCT-15 colon = test system: HCT-15 colon
# CAKI-1 renal = test system: CAKI-1 renal
# ACHN renal = test system: ACHN renal
# TK-10 renal = test system: TK-10 renal
# SW-620 colon = test system: SW-620 colon
# KM12 colon = test system: KM12 colon
# UACC-257 melanoma = test system: UACC-257 melanoma
# MALME-3M melanoma = test system: MALME-3M melanoma
# DU-145 prostate = test system: DU-145 prostate
# HOP-62 NSCLC = test system: HOP-62 NSCLC
# PC-3 prostate = test system: PC-3 prostate
# HS 578T breast = test system: HS 578T breast
# NCI-H460 lung = test system: NCI-H460 lung
# NCI-H522 lung = test system: NCI-H522 lung
# COLO 205 colon = test system: COLO 205 colon
# A549 NSCLC = test system: A549 NSCLC
# SF-539 CNS = test system: SF-539 CNS
# MDA-N = test system: MDA-N
# SK-MEL-2 melanoma = test system: SK-MEL-2 melanoma
# CCRF-CEM leukemia = test system: CCRF-CEM leukemia
# OVCAR-4 ovarian = test system: OVCAR-4 ovarian
# IGROV1 ovarian = test system: IGROV1 ovarian
# SNB-75 CNS = test system: SNB-75 CNS
# MDA-MB-231 breast = test system: MDA-MB-231 breast
# M14 melanoma = test system: M14 melanoma
# RXF 393 renal = test system: RXF 393 renal
# HL-60(TB) leukemia = test system: HL-60(TB) leukemia
# SF-268 CNS = test system: SF-268 CNS
# U251 CNS = test system: U251 CNS
# BT-549 breast = test system: BT-549 breast
# OVCAR-8 ovarian = test system: OVCAR-8 ovarian
# OVCAR-5 ovarian = test system: OVCAR-5 ovarian
# EKVX NSCLC = test system: EKVX NSCLC
# SF-295 CNS = test system: SF-295 CNS
# SN12C renal = test system: SN12C renal
# SR leukemia = test system: SR leukemia
# LOX IMVI melanoma = test system: LOX IMVI melanoma
# HT29 colon = test system: HT29 colon
# HCC-2998 colon = test system: HCC-2998 colon
# NCI-H23 lung = test system: NCI-H23 lung
# MCF7 breast = test system: MCF7 breast
# SK-MEL-28 melanoma = test system: SK-MEL-28 melanoma
# OVCAR-3 ovarian = test system: OVCAR-3 ovarian
# HOP-92 NSCLC = test system: HOP-92 NSCLC
# MDA-MB-435 = test system: MDA-MB-435
# A498 renal = test system: A498 renal
smiles,measurement,setting,value
COc1ccc(OC)c(C(=O)c2cccc(C(=O)c3cc(OC)ccc3OC)n2)c1,TGI,K-562 leukemia,> 100 µM
same,TGI,SNB-19 CNS,> 100 µM
same,TGI,786-0 renal,> 100 µM
same,TGI,NCI-H226 lung,74.9 µM
same,TGI,HCT-116 colon,> 100 µM
same,TGI,UO-31 renal,85.9 µM
same,TGI,UACC-62 melanoma,> 100 µM
same,TGI,SK-OV-3 ovarian,> 100 µM
same,TGI,MOLT-4 leukemia,> 100 µM
same,TGI,T-47D breast,> 100 µM
same,TGI,NCI/ADR-RES ovarian,> 100 µM
same,TGI,SK-MEL-5 melanoma,50.5 µM
same,TGI,HCT-15 colon,> 100 µM
same,TGI,CAKI-1 renal,> 100 µM
same,TGI,ACHN renal,> 100 µM
same,TGI,TK-10 renal,> 100 µM
same,TGI,SW-620 colon,> 100 µM
same,TGI,KM12 colon,> 100 µM
same,TGI,UACC-257 melanoma,> 100 µM
same,TGI,MALME-3M melanoma,> 100 µM
same,TGI,DU-145 prostate,> 100 µM
same,TGI,HOP-62 NSCLC,> 100 µM
same,TGI,PC-3 prostate,> 100 µM
same,TGI,HS 578T breast,84.5 µM
same,TGI,NCI-H460 lung,> 100 µM
same,TGI,NCI-H522 lung,> 100 µM
same,TGI,COLO 205 colon,> 100 µM
same,TGI,A549 NSCLC,> 100 µM
same,TGI,SF-539 CNS,> 100 µM
same,TGI,MDA-N,62.6 µM
same,TGI,SK-MEL-2 melanoma,70.9 µM
same,TGI,CCRF-CEM leukemia,> 100 µM
same,TGI,OVCAR-4 ovarian,> 100 µM
same,TGI,IGROV1 ovarian,> 100 µM
same,TGI,SNB-75 CNS,59.4 µM
same,TGI,MDA-MB-231 breast,> 100 µM
same,TGI,M14 melanoma,> 100 µM
same,TGI,RXF 393 renal,43.4 µM
same,TGI,HL-60(TB) leukemia,71.9 µM
same,TGI,SF-268 CNS,> 100 µM
same,TGI,U251 CNS,> 100 µM
same,TGI,BT-549 breast,79.2 µM
same,TGI,OVCAR-8 ovarian,> 100 µM
same,TGI,OVCAR-5 ovarian,> 100 µM
same,TGI,EKVX NSCLC,> 100 µM
same,TGI,SF-295 CNS,74.5 µM
same,TGI,SN12C renal,> 100 µM
same,TGI,SR leukemia,> 100 µM
same,TGI,LOX IMVI melanoma,> 100 µM
same,TGI,HT29 colon,> 100 µM
same,TGI,HCC-2998 colon,> 100 µM
same,TGI,NCI-H23 lung,74 µM
same,TGI,MCF7 breast,67.5 µM
same,TGI,SK-MEL-28 melanoma,> 100 µM
COc1cc(-c2nc3nc(N4CCN(C)CC4)ccc3[nH]2)c(OC)c2[nH]c(CO)nc12,TGI,K-562 leukemia,> 100 µM
same,TGI,SNB-19 CNS,> 100 µM
same,TGI,786-0 renal,> 100 µM
same,TGI,NCI-H226 lung,> 100 µM
same,TGI,HCT-116 colon,> 100 µM
same,TGI,UO-31 renal,> 100 µM
same,TGI,OVCAR-3 ovarian,> 100 µM
same,TGI,UACC-62 melanoma,> 100 µM
same,TGI,SK-OV-3 ovarian,> 100 µM
same,TGI,MOLT-4 leukemia,> 100 µM
same,TGI,T-47D breast,> 100 µM
same,TGI,NCI/ADR-RES ovarian,> 100 µM
same,TGI,SK-MEL-5 melanoma,> 100 µM
same,TGI,HCT-15 colon,> 100 µM
same,TGI,CAKI-1 renal,> 100 µM
same,TGI,ACHN renal,> 100 µM
same,TGI,TK-10 renal,> 100 µM
same,TGI,SW-620 colon,> 100 µM
same,TGI,KM12 colon,> 100 µM
same,TGI,HOP-92 NSCLC,> 100 µM
same,TGI,UACC-257 melanoma,> 100 µM
same,TGI,MALME-3M melanoma,> 100 µM
same,TGI,DU-145 prostate,> 100 µM
same,TGI,HOP-62 NSCLC,> 100 µM
same,TGI,HS 578T breast,> 100 µM
same,TGI,NCI-H460 lung,> 100 µM
same,TGI,NCI-H522 lung,> 100 µM
same,TGI,COLO 205 colon,> 100 µM
same,TGI,A549 NSCLC,> 100 µM
same,TGI,SF-539 CNS,> 100 µM
same,TGI,MDA-N,> 100 µM
same,TGI,SK-MEL-2 melanoma,99.1 µM
same,TGI,OVCAR-4 ovarian,> 100 µM
same,TGI,IGROV1 ovarian,> 100 µM
same,TGI,SNB-75 CNS,> 100 µM
same,TGI,MDA-MB-231 breast,> 100 µM
same,TGI,M14 melanoma,> 100 µM
same,TGI,RXF 393 renal,> 100 µM
same,TGI,SF-268 CNS,> 100 µM
same,TGI,U251 CNS,> 100 µM
same,TGI,BT-549 breast,> 100 µM
same,TGI,MDA-MB-435,> 100 µM
same,TGI,OVCAR-8 ovarian,> 100 µM
same,TGI,OVCAR-5 ovarian,> 100 µM
same,TGI,EKVX NSCLC,> 100 µM
same,TGI,SF-295 CNS,> 100 µM
same,TGI,SN12C renal,> 100 µM
same,TGI,SR leukemia,> 100 µM
same,TGI,A498 renal,> 100 µM
same,TGI,LOX IMVI melanoma,> 100 µM
same,TGI,HT29 colon,> 100 µM
same,TGI,HCC-2998 colon,> 100 µM
same,TGI,NCI-H23 lung,> 100 µM
same,TGI,MCF7 breast,> 100 µM
same,TGI,SK-MEL-28 melanoma,> 100 µM
